Legend:
Type in all cases: in vivo
velvetleaf [1] = assay: Upland soil treatment test (3); details: 20th day after treatment; further: ranges in brackets are in %
Protocol: (§1) 90 Parts by weight of the above carrier and 10 parts by weight of each of Compounds obtained in the above Preparation Examples were uniformly pulverized and mixed to obtain herbicides. Further, for Herbicide Comparative Examples, comparative herbicides were prepared by uniformly pulverizing and mixing 90 parts by weight of the above carrier and 10 parts by weight of each of the following Compounds x, y, A, B and C.
(§2) (3) Biological Test (Upland Soil Treatment Test, Herbicide Examples 3 and 4 and Herbicide Comparative Examples 3 and 4)
(§3) Seeds of weeds such as large crabgrass, barnyardgrass, green foxtail, cocklebur, velvetleaf and slender amaranth and seeds of corn, wheat and barley were sown in 1/5,000-are Wagner pots filled with upland soil, and covered with upland soil. Then, a predetermined amount of the herbicide prepared in the above (1) was suspended in water and uniformly sprayed onto the soil surface. Thereafter, the plants were grown in the greenhouse, and on 20th day after the treatment, the herbicide was evaluated for herbicidal efficacy.
(§4) The herbicidal efficacy and the phytotoxicity to crops are shown on the basis of the ratings described in (2) Foliar treatment test.

barnyard grass [2] = assay: Upland soil treatment test (3); details: 20th day after treatment; further: ranges in brackets are in %
Protocol: as §1, §2, §3, §4

green foxtail [3] = assay: Upland soil treatment test (3); details: 20th day after treatment; further: ranges in brackets are in %
Protocol: as §1, §2, §3, §4

slender amaranth [4] = assay: Upland soil treatment test (3); details: 20th day after treatment; further: ranges in brackets are in %
Protocol: as §1, §2, §3, §4

large crabgrass [5] = assay: Upland soil treatment test (3); details: 20th day after treatment; further: ranges in brackets are in %
Protocol: as §1, §2, §3, §4

cocklebur [6] = assay: Upland soil treatment test (3); details: 20th day after treatment; further: ranges in brackets are in %
Protocol: as §1, §2, §3, §4

velvetleaf [7] = assay: Upland soil treatment test (5); details: dosage 100 g a.i./hectare, 20th day after treatment; further: ranges in brackets are in %
Protocol: as §1
(§5) (5) Biological Test (Upland Soil Treatment Test, Herbicide Examples 10-26 and Comparative Example 9)
as §3, with “barnyard grass,” for “barnyardgrass,”
(§6) The dosage of each herbicide is indicated as an amount of the active ingredient per hectare. Further, air-dried weight were measured, and herbicidal efficacy and the pytotoxicity to corn are shown on the basis of the ratings described below.

barnyard grass [8] = assay: Upland soil treatment test (5); details: dosage 100 g a.i./hectare, 20th day after treatment; further: ranges in brackets are in %
Protocol: as §1, §5
as §3, with “barnyard grass,” for “barnyardgrass,”
as §6

green foxtail [9] = assay: Upland soil treatment test (5); details: dosage 100 g a.i./hectare, 20th day after treatment; further: ranges in brackets are in %
Protocol: as §1, §5
as §3, with “barnyard grass,” for “barnyardgrass,”
as §6

slender amaranth [10] = assay: Upland soil treatment test (5); details: dosage 100 g a.i./hectare, 20th day after treatment; further: ranges in brackets are in %
Protocol: as §1, §5
as §3, with “barnyard grass,” for “barnyardgrass,”
as §6

large crabgrass [11] = assay: Upland soil treatment test (5); details: dosage 100 g a.i./hectare, 20th day after treatment; further: ranges in brackets are in %
Protocol: as §1, §5
as §3, with “barnyard grass,” for “barnyardgrass,”
as §6

cocklebur [12] = assay: Upland soil treatment test (5); details: dosage 100 g a.i./hectare, 20th day after treatment; further: ranges in brackets are in %
Protocol: as §1, §5
as §3, with “barnyard grass,” for “barnyardgrass,”
as §6

velvetleaf [13] = assay: Foliar treatment test (2); details: 20th day after treatment; further: ranges in brackets are in %
Protocol: as §1
(§7) (2) Biological Test (Foliar Treatment Test, Herbicide Examples 1 and 2 and Herbicide Comparative Examples 1 and 2)
as §3, with “barnyard grass,” for “barnyardgrass,”, “The seeds were grown in a greenhouse, and at the stage of 1˜2 leaves of these plants,” for “Then,”, “leaf and stalk portions at a rate of 200 liter/10 are.” for “the soil surface.”
(§8) The herbicidal efficacy and phytotoxcity to crops were shown on the basis of the following ratings.
(§9) The ratio of remaining plant weight to non-treated was determined on the basis of the ratio of remaining plant weight to non-treated=(remaining plant weight in treated plot/remaining plant weight in non-treated plot)×100. This is also applicable to biological tests hereinafter.

barnyard grass [14] = assay: Foliar treatment test (2); details: 20th day after treatment; further: ranges in brackets are in %
Protocol: as §1, §7
as §3, with “barnyard grass,” for “barnyardgrass,”, “The seeds were grown in a greenhouse, and at the stage of 1˜2 leaves of these plants,” for “Then,”, “leaf and stalk portions at a rate of 200 liter/10 are.” for “the soil surface.”
as §8, §9

green foxtail [15] = assay: Foliar treatment test (2); details: 20th day after treatment; further: ranges in brackets are in %
Protocol: as §1, §7
as §3, with “barnyard grass,” for “barnyardgrass,”, “The seeds were grown in a greenhouse, and at the stage of 1˜2 leaves of these plants,” for “Then,”, “leaf and stalk portions at a rate of 200 liter/10 are.” for “the soil surface.”
as §8, §9

slender amaranth [16] = assay: Foliar treatment test (2); details: 20th day after treatment; further: ranges in brackets are in %
Protocol: as §1, §7
as §3, with “barnyard grass,” for “barnyardgrass,”, “The seeds were grown in a greenhouse, and at the stage of 1˜2 leaves of these plants,” for “Then,”, “leaf and stalk portions at a rate of 200 liter/10 are.” for “the soil surface.”
as §8, §9

large crabgrass [17] = assay: Foliar treatment test (2); details: 20th day after treatment; further: ranges in brackets are in %
Protocol: as §1, §7
as §3, with “barnyard grass,” for “barnyardgrass,”, “The seeds were grown in a greenhouse, and at the stage of 1˜2 leaves of these plants,” for “Then,”, “leaf and stalk portions at a rate of 200 liter/10 are.” for “the soil surface.”
as §8, §9

cocklebur [18] = assay: Foliar treatment test (2); details: 20th day after treatment; further: ranges in brackets are in %
Protocol: as §1, §7
as §3, with “barnyard grass,” for “barnyardgrass,”, “The seeds were grown in a greenhouse, and at the stage of 1˜2 leaves of these plants,” for “Then,”, “leaf and stalk portions at a rate of 200 liter/10 are.” for “the soil surface.”
as §8, §9

corn [19] = assay: Upland soil treatment test (5), phytotoxicity; details: dosage 100 g a.i./hectare, 20th day after treatment
Protocol: as §1, §5
as §3, with “barnyard grass,” for “barnyardgrass,”
as §6

barnyard grass [20] = assay: Submergence soil treatment test (4); details: twenty days after treatment; further: ranges in brackets are in %
Protocol: as §1
(§10) (4) Biological Test (Submergence Soil Treatment Test, Herbicide Examples 5˜9 and Comparative Examples 5˜8 and Reference Example 1 and 2)
(§11) 1/15,500-are porcelain pots were filled with paddy field soil, and seeds of barnyard grass and umbrella plant were sown in a surface layer of the soil, and paddy rice at the 2-leaf stage was transplanted. Then, the weeds were treated by uniformly spraying a diluted solution of a predetermined amount of the herbicide prepared in the above (1) onto the water surface at the time of germination of the weeds, and then the pots were allowed to stand in a greenhouse while water was properly sprayed. […] The dosage of each herbicide is shown as an amount of the active ingredient per 10 areas. Further, air-dried weights were measured, and the herbicidal efficacy and the phytotoxicity to the paddy rice were shown as follows.

umbrella plant = assay: Submergence soil treatment test (4); details: twenty days after treatment; further: ranges in brackets are in %
Protocol: as §1, §10, §11

corn [21] = assay: Upland soil treatment test (6), phytotoxicity; details: 100 g/hectare, 20th day after treatment; further: ranges in brackets are in %
Protocol: as §1
(§12) (6) Biological Test (Upland Soil Treatment Test, Herbicide Examples 27˜42 and Comparative Example 10).
as §3, with “crabgrass, barnyard grass,” for “crabgrass, barnyardgrass,”, “foxtail, cocklebur ,” for “foxtail, cocklebur,”, “evaluated f or” for “evaluated for”
(§13) The dosage of each herbicide is indicated as an amount of the active ingredient per hectare. Further, air-dried weight were measured and the herbicidal efficacy and the phytotoxicity to corn are shown on the basis of the ratings described below.

velvetleaf [22] = assay: Upland soil treatment test (6); details: 100 g/hectare, 20th day after treatment; further: ranges in brackets are in %
Protocol: as §1, §12
as §3, with “crabgrass, barnyard grass,” for “crabgrass, barnyardgrass,”, “foxtail, cocklebur ,” for “foxtail, cocklebur,”, “evaluated f or” for “evaluated for”
as §13

barnyard grass [23] = assay: Upland soil treatment test (6); details: 100 g/hectare, 20th day after treatment; further: ranges in brackets are in %
Protocol: as §1, §12
as §3, with “crabgrass, barnyard grass,” for “crabgrass, barnyardgrass,”, “foxtail, cocklebur ,” for “foxtail, cocklebur,”, “evaluated f or” for “evaluated for”
as §13

green foxtail [24] = assay: Upland soil treatment test (6); details: 100 g/hectare, 20th day after treatment; further: ranges in brackets are in %
Protocol: as §1, §12
as §3, with “crabgrass, barnyard grass,” for “crabgrass, barnyardgrass,”, “foxtail, cocklebur ,” for “foxtail, cocklebur,”, “evaluated f or” for “evaluated for”
as §13

slender amaranth [25] = assay: Upland soil treatment test (6); details: 100 g/hectare, 20th day after treatment; further: ranges in brackets are in %
Protocol: as §1, §12
as §3, with “crabgrass, barnyard grass,” for “crabgrass, barnyardgrass,”, “foxtail, cocklebur ,” for “foxtail, cocklebur,”, “evaluated f or” for “evaluated for”
as §13

large crabgrass [26] = assay: Upland soil treatment test (6); details: 100 g/hectare, 20th day after treatment; further: ranges in brackets are in %
Protocol: as §1, §12
as §3, with “crabgrass, barnyard grass,” for “crabgrass, barnyardgrass,”, “foxtail, cocklebur ,” for “foxtail, cocklebur,”, “evaluated f or” for “evaluated for”
as §13

cocklebur [27] = assay: Upland soil treatment test (6); details: 100 g/hectare, 20th day after treatment; further: ranges in brackets are in %
Protocol: as §1, §12
as §3, with “crabgrass, barnyard grass,” for “crabgrass, barnyardgrass,”, “foxtail, cocklebur ,” for “foxtail, cocklebur,”, “evaluated f or” for “evaluated for”
as §13

paddy rice = assay: Submergence soil treatment test (4), phytotoxicity; details: twenty days after treatment
Protocol: as §1, §10, §11

CCn1ncc(C(=O)c2ccc3c(c2C)C(C)(C)CCS3)c1O [Compound 2]
Herbicidal Efficacy velvetleaf (velvetleaf [1]; dosage 3 g a.i./are): 5 (0)
Herbicidal Efficacy velvetleaf (velvetleaf [1]; dosage 10 g a.i./are): 5 (0)
Herbicidal Efficacy barnyard grass (barnyard grass [2]; dosage 3 g a.i./are): 5 (0)
Herbicidal Efficacy barnyard grass (barnyard grass [2]; dosage 10 g a.i./are): 5 (0)
Herbicidal Efficacy green foxtail (green foxtail [3]; dosage 3 g a.i./are): 5 (0)
Herbicidal Efficacy green foxtail (green foxtail [3]; dosage 10 g a.i./are): 5 (0)
Herbicidal Efficacy slender amaranth (slender amaranth [4]; dosage 3 g a.i./are): 5 (0)
Herbicidal Efficacy slender amaranth (slender amaranth [4]; dosage 10 g a.i./are): 5 (0)
Herbicidal Efficacy large crabgrass (large crabgrass [5]; dosage 3 g a.i./are): 5 (0)
Herbicidal Efficacy large crabgrass (large crabgrass [5]; dosage 10 g a.i./are): 5 (0)
Herbicidal Efficacy cocklebur (cocklebur [6]; dosage 3 g a.i./are): 5 (0)
Herbicidal Efficacy cocklebur (cocklebur [6]; dosage 10 g a.i./are): 5 (0)
Herbicidal Efficacy velvetleaf (velvetleaf [7]): 5 (0)
Herbicidal Efficacy barnyard grass (barnyard grass [8]): 5 (0)
Herbicidal Efficacy green foxtail (green foxtail [9]): 5 (0)
Herbicidal Efficacy slender amaranth (slender amaranth [10]): 5 (0)
Herbicidal Efficacy large crabgrass (large crabgrass [11]): 5 (0)
Herbicidal Efficacy cocklebur (cocklebur [12]): 5 (0)
Herbicidal Efficacy velvetleaf (velvetleaf [13]; dosage 3 g a.i./are): 4 (1-20)
Herbicidal Efficacy velvetleaf (velvetleaf [13]; dosage 10 g a.i./are): 5 (0)
Herbicidal Efficacy barnyard grass (barnyard grass [14]; dosage 3 g a.i./are): 4 (1-20)
Herbicidal Efficacy barnyard grass (barnyard grass [14]; dosage 10 g a.i./are): 5 (0)
Herbicidal Efficacy green foxtail (green foxtail [15]; dosage 3 g a.i./are): 3 (21-40)
Herbicidal Efficacy green foxtail (green foxtail [15]; dosage 10 g a.i./are): 5 (0)
Herbicidal Efficacy slender amaranth (slender amaranth [16]; dosage 3 g a.i./are): 3 (21-40)
Herbicidal Efficacy slender amaranth (slender amaranth [16]; dosage 10 g a.i./are): 5 (0)
Herbicidal Efficacy large crabgrass (large crabgrass [17]; dosage 3 g a.i./are): 5 (0)
Herbicidal Efficacy large crabgrass (large crabgrass [17]; dosage 10 g a.i./are): 5 (0)
Herbicidal Efficacy cocklebur (cocklebur [18]; dosage 3 g a.i./are): 5 (0)
Herbicidal Efficacy cocklebur (cocklebur [18]; dosage 10 g a.i./are): 5 (0)
Phyto-toxicity to corn (corn [19]): 0 (100)

CCn1ncc(C(=O)c2ccc(S(C)(=O)=O)c(C(=O)OC)c2Cl)c1O [Comp'd A, reference compound]
Herbicidal Effficacy barnyard grass (barnyard grass [20]; dosage 1 g a.i./10 are): 1 (61-80)
Herbicidal Effficacy barnyard grass (barnyard grass [20]; dosage 3 g a.i./10 are): 4 (1-20)
Herbicidal Effficacy umbrella plant (umbrella plant; dosage 1 g a.i./10 are): 0 (81-100)
Herbicidal Effficacy umbrella plant (umbrella plant; dosage 3 g a.i./10 are): 4 (1-20)
Herbicidal Efficacy velvetleaf (velvetleaf [7]): 5 (0)
Herbicidal Efficacy barnyard grass (barnyard grass [8]): 2 (41-60)
Herbicidal Efficacy green foxtail (green foxtail [9]): 4 (1-20)
Herbicidal Efficacy slender amaranth (slender amaranth [10]): 3 (21-40)
Herbicidal Efficacy large crabgrass (large crabgrass [11]): 1 (61-80)
Herbicidal Efficacy cocklebur (cocklebur [12]): 1 (61-80)
Phytotoxicity to corn (corn [21]): 0 (100)
Herbicidal efficacy (E): velvetleaf (velvetleaf [22]): 5 (0)
Herbicidal efficacy (B): barnyard grass (barnyard grass [23]): 2 (41-60)
Herbicidal efficacy (C): green foxtail (green foxtail [24]): 4 (1-20)
Herbicidal efficacy (F): slender amaranth (slender amaranth [25]): 3 (21-40)
Herbicidal efficacy (A): large crabgrass (large crabgrass [26]): 1 (61-80)
Herbicidal efficacy (D): cocklebur (cocklebur [27]): 1 (61-80)
Phytotoxicity to paddy rice (paddy rice; dosage 1 g a.i./10 are): 0 (100)
Phytotoxicity to paddy rice (paddy rice; dosage 3 g a.i./10 are): 4 (0-79)
Phyto-toxicity to corn (corn [19]): 0 (100)
